Experimental data taken from patent US20220041606A1, “POSITIVE ALLOSTERIC MODULATORS OF THE MUSCARINIC ACETYLCHOLINE RECEPTOR M1” (Vanderbilt University, priority 2020, published 2022).

Assays:
human mAChR M1 [1] = molecular target: T1, human mAChR M1 (Homo sapiens, UniProt P11229); experiment: mAChR M1 cell-based functional assay (calcium mobilization), PAM activity: increase in the EC20 acetylcholine response; details: CHO-K1 cells expressing hM1; potentiation of EC20 acetylcholine response
T1 construct: host or cells: CHO-K1 cells (ATCC), stably transfected using Lipofectamine2000
T1 sequence (P11229 1-460): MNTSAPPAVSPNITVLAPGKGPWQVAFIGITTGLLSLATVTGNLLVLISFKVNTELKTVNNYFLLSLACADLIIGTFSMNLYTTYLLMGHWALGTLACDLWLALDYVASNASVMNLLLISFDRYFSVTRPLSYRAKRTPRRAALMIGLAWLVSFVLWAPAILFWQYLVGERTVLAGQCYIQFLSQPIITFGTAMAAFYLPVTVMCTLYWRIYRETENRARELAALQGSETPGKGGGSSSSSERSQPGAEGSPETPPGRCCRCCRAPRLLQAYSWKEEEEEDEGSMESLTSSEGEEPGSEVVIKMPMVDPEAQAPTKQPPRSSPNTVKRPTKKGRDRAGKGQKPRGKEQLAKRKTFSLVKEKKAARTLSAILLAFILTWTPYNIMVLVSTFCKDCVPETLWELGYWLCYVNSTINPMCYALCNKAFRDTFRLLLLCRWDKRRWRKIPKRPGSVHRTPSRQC
Method in brief: (§1)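 CHO-K1 cells stably expressing hM1, loaded with Fluo-4 AM; calcium flux read on FDSS 6000. Compound (11-point, 1:3 CRC) added at 4 s, EC20 acetylcholine at 144 s, EC80 at 230 s; agonism from response to compound alone, PAM from increase in EC20 response; Emax relative to acetylcholine maximum, four-parameter fit.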

human mAChR M1 [2] = molecular target: T1, human mAChR M1; experiment: mAChR M1 cell-based functional assay (calcium mobilization), agonist activity upon compound addition; details: CHO-K1 cells expressing hM1; for EC50: compound alone, before acetylcholine addition; for Emax: relative to the maximum for acetylcholine
Method in brief: as §1

O=C(N[C@H]1CCOC[C@@H]1O)c1cn(Cc2ccc(-n3cccn3)cc2)c(=O)c2ccoc12 [Compound D2, 5-(4-(1H-pyrazol-1-yl)benzyl)-N-((3R,4S)-3-hydroxytetrahydro-2H-pyran-4-yl)-4-oxo-4,5-dihydrofuro[3,2-c]pyridine-7-carboxamide]
EC50 (human mAChR M1 [1]): > 10 µM
Emax (human mAChR M1 [1]): 57%
EC50 (human mAChR M1 [2]): > 10 µM
Emax (human mAChR M1 [2]): < 5%

Cc1cc(-c2cc(F)c(Cn3cc(C(=O)N[C@H]4CCOC[C@@H]4O)c4ncccc4c3=O)c(F)c2)ccn1 [Compound A36, 6-(2,6-difluoro-4-(2-methylpyridin-4-yl)benzyl)-N-((3R,4S)-3-hydroxytetrahydro-2H-pyran-4-yl)-5-oxo-5,6-dihydro-1,6-naphthyridine-8-carboxamide]
EC50 (human mAChR M1 [1]): 0.61 µM
Emax (human mAChR M1 [1]): 65%
EC50 (human mAChR M1 [2]): 1.77 µM
Emax (human mAChR M1 [2]): 13%

Cn1cc(-c2ccc(Cn3cc(C(=O)N[C@@H]4CC[C@H]4O)c4ncccc4c3=O)c(F)c2)cn1 [Compound A9, 6-(2-fluoro-4-(1-methyl-1H-pyrazol-4-yl)benzyl)-N-((1R,2R)-2-hydroxycyclobutyl)-5-oxo-5,6-dihydro-1,6-naphthyridine-8-carboxamide]
EC50 (human mAChR M1 [1]): 5.87 µM
Emax (human mAChR M1 [1]): 65%
EC50 (human mAChR M1 [2]): > 10 µM
Emax (human mAChR M1 [2]): < 5%

O=C(N[C@H]1CCCCC[C@@H]1O)c1cn(Cc2ccc(-c3cscn3)cc2)c(=O)c2cccnc12 [Compound A60, N-((1S,2S)-2-hydroxycycloheptyl)-5-oxo-6-(4-(thiazol-4-yl)benzyl)-5,6-dihydro-1,6-naphthyridine-8-carboxamide]
EC50 (human mAChR M1 [1]): 0.61 µM
Emax (human mAChR M1 [1]): 34%
EC50 (human mAChR M1 [2]): > 10 µM
Emax (human mAChR M1 [2]): < 5%
